Measured values published in patent US8653237B2, “Peptide analogues” (MannKind Corporation, priority 2005, dated 2014).
Square brackets hold non-standard residues; d marks the D form. Peptide text beside a SMILES is read from it. Cha = N[C@@H](CC1CCCCC1)C(=O)O

Legend:
[1] = biological target: T1, HLA-A*0201 (Homo sapiens, UniProt P04439, D140Y/D185E/D98H/E176V/E277Q/G131W/G231S/I119V/I121R/I166T/I218V/L300P/L318F/N151K/N90K/P208A/P217A/Q86G/Q94H/R138H/R169H/T345S); test: Peptide binding using T2 cells (affinity to HLA-A*0201); parameters: endogenous in cells; host or cells: T2 cells; conditions: peptide concentration giving 50% of the saturation signal on T2 cells
[2] = tested on: T cell lines against natural epitope SSX-241-49; test: Cross-reactivity and functional avidity: IFN-gamma production by T cell lines raised against natural SSX-2 41-49; format: cell-based, HHD transgenic mice; conditions: T cells raised against native SSX-2 41-49 stimulated with analog, native = 1, lower = more active
[3] = biological target: T1, HLA-A*0201; test: iTopia affinity assay (ED50); format: binding
From the text: Avidin-coated microtiter plates containing class I monomer loaded with a so-called placeholder peptide were used to evaluate peptide binding, affinity and off-rate. The monomer-coated plates were supplied as part of the iTopia Epitope Discovery System Kit (Beckman Coulter, Inc., San Diego, Calif., USA). Assay buffers, anti-MHC-FITC mAb and beta2-microglobulin and control peptides were also supplied with the kits.
Plates were read on the fluorometer. Sigmoidal dose response curves were generated using Prism software.

[4] = tested on: T cell line specific for the native epitope PRAME425-433; test: Cross-reactivity: IFN-gamma secretion from T cell line specific for native PRAME425-433; format: cell-based, HHD transgenic mice; conditions: analog peptide at approximately 0.304 (so in the source); normalized to native peptide
Procedure: At 7 days after the last boost, the mice were sacrificed and a suspension of splenocytes prepared at 5×10^6 […] cells/ml in complete HL-1 medium. Cells were incubated with different concentrations of peptide for 48 hours in flat-bottomed 96-well plates (200 μl/well) and for an additional 24 hours with rIL-2 at 10 U/ml added to the wells. The supernatant was harvested and the concentration of IFN-gamma assessed by standard methods such as ELISA.
The analogs listed in FIGS. 26-28 were tested for various properties such as improved affinity and stability of binding, cross-reactivity with the native epitope, and immunogenicity as follows in Examples 40-48. […] The observed affinities of the analogs are reported as % binding (compared to the positive control) and ED50, and stability of binding as half time of dissociation. Cross reactivity with the native epitope was assessed by using the analog peptides to stimulate IFN-gamma secretion from a T cell line specific for the native epitope, essentially as described in Example 6. The data shown in FIGS. 26-28 were generated by stimulating with analog peptide at approximately 0.304. […] In some cases, the reported values are the average of two determinations.

## CC[C@H](C)[C@H](NC(=O)[C@H](CCCCN)NC(=O)[C@H](CCC(=O)O)NC(=O)[C@H](CO)NC(=O)[C@H](Cc1cccc2ccccc12)NC(=O)[C@@H](N)CCCCN)C(=O)N[C@@H](Cc1ccccc1)C(=O)N[C@@H](Cc1ccc(O)cc1)C(=O)N[C@H](C(=O)O)C(C)C [SSX2 41-49 (A42(Nal-1)), KNal-1SEKIFYV]
[1]
  Half-maximal Binding: N/B

## CC[C@H](C)[C@H](NC(=O)[C@H](CCCCN)NC(=O)[C@H](CCC(=O)O)NC(=O)[C@H](CO)NC(=O)[C@H](C)NC(=O)[C@@H](N)CC1CCCCC1)C(=O)N[C@@H](Cc1ccccc1)C(=O)N[C@@H](Cc1ccc(O)cc1)C(=O)N[C@H](C(=O)O)C(C)C [SSX2 41-49 (K41(Cha))] (H-[Cha]ASEKIFYV-OH)
[1]
  Half-maximal Binding: N/B

## CC[C@H](C)[C@H](NC(=O)[C@H](CCCCN)NC(=O)[C@H](CCC(=O)O)NC(=O)[C@H](CO)NC(=O)[C@@H](NC(=O)[C@@H](N)Cc1ccccc1)C(C)C)C(=O)N[C@@H](Cc1ccccc1)C(=O)N[C@@H](Cc1ccc(O)cc1)C(=O)N(C)[C@H](C(=O)O)C(C)C [SSX2 41-49 (K41F, A42V, V49MeVal)]
[2]
  Cross-reactivity and fct avidity (native to analogs): 10

## Lys P1 analog: PRAME425-433 analog with Lys substituted for the Ser at the P1 position (KLLQHLIGL; UniProt P78395 425-433, looked up, variant S425K)
[3]
  Binding affinity (ED50) relative to native peptide (in words): reduced by almost 6-fold
[4]
  IFN-γ elicited, relative to native peptide: 40%
